Patent US12303509B2, “Compounds for the treatment of BRAF-associated diseases and disorders” (Pfizer Inc., priority 2020, dated 2025)

Key:
[1] = molecular target: BCRP (Homo sapiens (Human), UniProt Q9UNQ0); test: BCRP MDCKII permeability assay: efflux ratio; assay type: in vitro ADME; details: dog
Experimental: BCRP transfected MDCKII cells were cultured and plated according to manufacturer's recommendations. Assay conditions included with and without the BCRP-specific inhibitor, KO143, at a concentration of 0.3 μM to ascertain the contribution of BCRP to the efflux value of the test compound.
Both positive and negative controls were used to assess functionality of P-gp or BCRP efflux in the assays. […] Final organic concentration in the assay was 1%. All dosing solutions contained 10 μM lucifer yellow to monitor LLC-PK1 or MDCKII cell monolayer integrity.
For the apical to basolateral determination (A to B), 75 μL of the test article in transport buffer were added to the apical side of the individual transwells and 250 μL of basolateral media, without compound or lucifer yellow, were added to each well. For the basolateral to apical determination (B to A), 250 μL of test article in transport buffer were added to each well and 75 μL transport buffer, without compound or lucifer yellow, were added to each transwell. All tests were performed in triplicate, and each compound was tested for both apical to basolateral and basolateral to apical transport. The plates were incubated for 2 hours on a Lab-Line Instruments Titer Orbital Shaker (VWR, West Chester, PA) at 50 rpm and 37° C. with 5% CO2. All culture plates were removed from the incubator and 50 μL of media were removed from the apical and basolateral portion of each well and added to 150 μL of 1 μM labetalol in 2:1 acetonitrile (acetonitrile): H2O, v/v.
These values were accepted when found to be below 2% for apical to basolateral and 5% basolateral to apical flux across the MDR1-transfected LLC-PK1 or BCRP-transfected MDCKII cell monolayers. The plates were sealed and the contents of each well analyzed by LC-MS/MS. The compound concentrations were determined from the ratio of the peak areas of the compound to the internal standard (labetalol) in comparison to the dosing solution.
The LC-MS/MS system was comprised of an HTS-PAL autosampler (Leap Technologies, Carrboro, NC), an HP1200 HPLC (Agilent, Palo Alto, CA), and a MDS Sciex 4000 Q Trap system (Applied Biosystems, Foster City, CA). […] The total run time, including re-equilibration, for a single injection was 1.2 minutes. Mass spectrometric detection of the analytes was accomplished using the ion spray positive mode.
An efflux ratio is calculated from the mean apical to basolateral (A-B) Papp data and basolateral to apical (B-A) Papp data using the following equation: Efflux ratio=Papp(B-A)/Papp(A-B)

[2] = molecular target: P-gp (MDR1) (Homo sapiens (Human), UniProt P08183); test: MDR1 LLC-PK1 permeability assay: efflux ratio; assay type: in vitro ADME; details: pig
Excerpt: Final organic concentration in the assay was 1%.

[3] = PK (free brain-to-free plasma ratio) (mouse); assay type: in vivo; details: male CD-1 mice, oral gavage 10 mg/kg, unbound brain-to-unbound plasma, read-out: B/P ratio (free)
Experimental: The ability of representative compounds to penetrate the BBB in mice was determined by evaluating the unbound brain-to-unbound plasma (also referred to as free brain-to-free plasma) concentration ratio in male CD-1 mice.
Brain compound levels were generated from oral mouse PK dosing with typical sampling times of 2, 4, 8, 12 and 24 hours post oral gavage dosing at 10 mg/kg. Brain samples were stored at −20±5° C. prior to analysis. Concentrations of test compound in mouse brain homogenate were determined by liquid chromatography tandem mass spectrometry (LC-MS/MS) following protein precipitation with acetonitrile. A 12-point calibration curve, ranging from 0.5 to 10,000 ng/mL, was prepared in duplicate. A solution of 400 μg/mL of test compound in dimethyl sulfoxide (DMSO) was serially diluted (3-fold) in 100% DMSO, and then 2.5 μL of each standard solution was added to 100 μL of naïve male CD-1 mice brain homogenate. To mimic the extraction in the standard curve, 2.5 μL of DMSO was added to all test samples. Both calibration and test brain homogenate samples were spiked with 10 μL of an IS (1 μg/mL of a structural analog). Brain homogenate was generated by adding 0.75 mL of 4:1 water:MeOH to each brain sample followed by homogenization for 1 minute with bead beater tubes a 6 m/s using an MP Fast Prep-24®. Proteins were precipitated from 100 μL of brain homogenate sample by the addition of 300 μL of acetonitrile. Samples were vortex-mixed for 5 minutes and spun in an Allegra X-12R centrifuge (Beckman Coulter, Fullerton, CA; SX4750A rotor) for 15 min at approximately 1,500×g at 4° C. A 100 μL aliquot of each supernatant was transferred via a 550 μL Personal Pipettor (Apricot Designs, Monrovia, CA) to 96-well plates and diluted 1:1 with HPLC grade water. The resulting plates were sealed with aluminum for LC-MS/MS analysis.
Brain-to-plasma ratios were calculated using the concentration of compound measured in the brain divided by the concentration of compound measured in the plasma. Brain-to-plasma ratios were always generated from a single animal and time point. Free brain-to-free plasma ratios were calculated by multiplying the brain-to-plasma ratio by the in vitro brain homogenate free fraction divided by the in vitro plasma free fraction using the following equation: (B/P)*(Bfu/Pfu). Table C provides the free brain-to-free plasma ratios of compounds disclosed herein.

[4] = system: A375 cells; test: Cellular phospho-ERK inhibition assay in A375 cells; assay type: cell-based; details: Homo sapiens, A-375, A375 cells (head prints A357), 2 hours treatment, read-out: A357 cell IC50
Outline: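 A375 (DMEM) or H1755 (RPMI) cells in 10% FBS treated 2 h at 37 °C with 9-point series, 66 pM–10 μM, 0.25% DMSO. Phospho-ERK1/2 (Thr202/Tyr204) measured by In Cell Western, normalised to GAPDH and to DMSO and 10 μM binimetinib controls; IC50 by 4-parameter fit.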

Sequence of P-gp (MDR1) (P08183 whole entry, species assumed): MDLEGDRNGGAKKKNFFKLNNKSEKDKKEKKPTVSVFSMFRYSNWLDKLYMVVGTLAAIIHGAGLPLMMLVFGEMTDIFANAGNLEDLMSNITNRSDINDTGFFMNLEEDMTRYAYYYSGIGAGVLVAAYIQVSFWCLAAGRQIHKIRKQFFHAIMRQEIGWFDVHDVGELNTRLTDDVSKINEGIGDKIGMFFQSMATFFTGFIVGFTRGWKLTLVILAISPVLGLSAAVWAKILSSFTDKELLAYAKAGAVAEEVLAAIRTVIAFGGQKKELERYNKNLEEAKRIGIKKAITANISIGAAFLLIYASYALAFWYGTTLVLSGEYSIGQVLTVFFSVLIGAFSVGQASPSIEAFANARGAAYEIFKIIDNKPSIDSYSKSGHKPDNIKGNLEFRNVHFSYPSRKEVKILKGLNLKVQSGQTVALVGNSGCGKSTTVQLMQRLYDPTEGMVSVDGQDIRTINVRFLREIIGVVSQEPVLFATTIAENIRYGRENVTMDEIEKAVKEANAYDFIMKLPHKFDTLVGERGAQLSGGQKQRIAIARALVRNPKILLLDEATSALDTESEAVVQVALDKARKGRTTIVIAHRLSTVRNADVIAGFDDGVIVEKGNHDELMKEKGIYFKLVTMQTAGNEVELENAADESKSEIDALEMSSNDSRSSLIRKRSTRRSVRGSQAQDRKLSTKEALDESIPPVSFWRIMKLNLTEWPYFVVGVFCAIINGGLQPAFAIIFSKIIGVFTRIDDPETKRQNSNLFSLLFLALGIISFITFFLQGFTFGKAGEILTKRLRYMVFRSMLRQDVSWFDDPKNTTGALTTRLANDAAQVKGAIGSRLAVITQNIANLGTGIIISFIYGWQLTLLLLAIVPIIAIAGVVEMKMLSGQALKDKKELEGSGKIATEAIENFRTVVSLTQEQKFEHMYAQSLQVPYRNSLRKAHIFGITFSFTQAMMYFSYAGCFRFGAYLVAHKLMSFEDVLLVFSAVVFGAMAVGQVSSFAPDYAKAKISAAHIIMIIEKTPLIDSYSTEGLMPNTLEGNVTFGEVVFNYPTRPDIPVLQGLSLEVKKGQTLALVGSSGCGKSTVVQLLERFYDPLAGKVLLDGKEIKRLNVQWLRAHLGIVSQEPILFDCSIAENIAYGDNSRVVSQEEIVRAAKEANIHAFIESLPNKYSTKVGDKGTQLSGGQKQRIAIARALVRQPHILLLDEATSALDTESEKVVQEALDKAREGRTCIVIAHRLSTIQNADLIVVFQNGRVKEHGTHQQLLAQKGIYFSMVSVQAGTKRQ
Sequence of BCRP (Q9UNQ0 whole entry): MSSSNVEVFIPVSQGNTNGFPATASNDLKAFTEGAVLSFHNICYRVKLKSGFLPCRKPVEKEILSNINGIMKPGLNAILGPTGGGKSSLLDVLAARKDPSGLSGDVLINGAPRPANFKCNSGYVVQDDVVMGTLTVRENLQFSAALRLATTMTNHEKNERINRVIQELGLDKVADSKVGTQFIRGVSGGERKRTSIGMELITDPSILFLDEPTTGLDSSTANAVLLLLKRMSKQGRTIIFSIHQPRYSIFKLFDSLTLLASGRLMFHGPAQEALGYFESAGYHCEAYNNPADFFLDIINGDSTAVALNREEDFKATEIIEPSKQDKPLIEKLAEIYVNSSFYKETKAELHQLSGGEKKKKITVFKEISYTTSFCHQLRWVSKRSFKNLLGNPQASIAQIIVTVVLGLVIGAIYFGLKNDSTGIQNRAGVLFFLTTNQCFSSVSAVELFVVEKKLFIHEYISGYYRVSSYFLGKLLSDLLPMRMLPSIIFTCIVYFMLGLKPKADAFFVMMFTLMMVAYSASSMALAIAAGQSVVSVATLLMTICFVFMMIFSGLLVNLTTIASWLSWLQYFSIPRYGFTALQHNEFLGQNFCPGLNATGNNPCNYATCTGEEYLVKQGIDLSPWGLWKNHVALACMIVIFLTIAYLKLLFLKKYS

SMILES	efflux ratio at 2 h, 1 µM [1]	efflux ratio at 2 h, 1 µM [2]	Kp [3]	IC50 [4] [nM]
Cn1cnc2ccc(Nc3c(F)ccc(NS(=O)(=O)N4CC5CC4C5)c3Cl)c(F)c2c1=O [Example 13, N-(2-chloro-4-fluoro-3-((5-fluoro-3-methyl-4-oxo-3,4-dihydroquinazolin-6-yl)amino)phenyl)-2-azabicyclo[2.1.1]hexane-2-sulfonamide]	1.8	1.5	0.75 to 0.93	6
Cn1cnc2ccc(Nc3c(F)ccc(NS(=O)(=O)N4CC[C@@H](F)C4)c3Cl)c(F)c2c1=O [Example 14, (R)-N-(2-chloro-4-fluoro-3-((5-fluoro-3-methyl-4-oxo-3,4-dihydroquinazolin-6-yl)amino)phenyl)-3-fluoropyrrolidine-1-sulfonamide]	5.4	3.2	0.13 to 0.39	3
